According to patent US20240041991A1, “STABLE LIQUID DISPERSINB COMPOSITIONS” (KANE BIOTECH INC., priority 2020, published 2024):
Like-named read-outs stand apart in the source and are kept apart here. Marks after values point to notes of the source that are not given here.

Test system: DispersinB
Assay type: biochemical, Aggregatibacter actinomycetemcomitans
Details: for % enzymatic activity of DispersinB (Mean): polyol % as in label; for temperature stabilizing effect on DispersinB at elevated temperatures: 42° C., 52° C., and 62° C.
Experimental: Samples from each formula was incubated at 3 different temperatures (42° C., 52° C. and 62° C.) for 3 hours. Following a 3 hour incubation, the samples were brought to room temperature for enzymatic activity assay.
Two-tailed paired T-test was performed by to compare each polyol containing treatment with the treatment devoid of polyol. Treatment with probability values (p) less than 5% (0.05) was considered significant.

**Q.** How did the “% enzymatic activity of DispersinB (Mean)” value (“% enzymatic activity” below) (4° C., freshly made control without polyol = 100%, listed as 1% Maltitol) turn out when `OC[C@@H](O)[C@@H](O[C@H]1O[C@H](CO)[C@@H](O)[C@H](O)[C@H]1O)[C@H](O)[C@@H](O)CO` [Maltitol, 4-O-α-D-Glucopyranosyl-D-glucitol] was run?
**A.** 102%

**Q.** And the “% enzymatic activity” value (4° C., freshly made control without polyol = 100%, listed as 2.5% Maltitol)?
**A.** 99%

**Q.** What about the “% enzymatic activity” value (4° C., freshly made control without polyol = 100%, listed as 5% Maltitol) of the same molecule?
**A.** 95%

**Q.** And the “% enzymatic activity” value (4° C., freshly made control without polyol = 100%, listed as 10% Maltitol)?
**A.** 138* %

**Q.** What about the “% enzymatic activity” value (4° C., freshly made control without polyol = 100%, listed as 15% Maltitol) of the same molecule?
**A.** 104%

**Q.** And the “% enzymatic activity” value (4° C., freshly made control without polyol = 100%, listed as 20% Maltitol)?
**A.** 107%

**Q.** And the “% enzymatic activity” value (4° C., freshly made control without polyol = 100%, listed as 25% Maltitol)?
**A.** 102%

**Q.** And the “% enzymatic activity” value (42° C. for 3 hours, control without polyol = 100%, listed as 1% Maltitol)?
**A.** 106* %

**Q.** What about the “% enzymatic activity” value (42° C. for 3 hours, control without polyol = 100%, listed as 2.5% Maltitol) of the same molecule?
**A.** 110* %

**Q.** What about the “% enzymatic activity” value (42° C. for 3 hours, control without polyol = 100%, listed as 5% Maltitol) of the same molecule?
**A.** 107* %

**Q.** What about the “% enzymatic activity” value (42° C. for 3 hours, control without polyol = 100%, listed as 10% Maltitol) of the same molecule?
**A.** 143* %

**Q.** And the “% enzymatic activity” value (42° C. for 3 hours, control without polyol = 100%, listed as 15% Maltitol)?
**A.** 110* %

**Q.** And the “% enzymatic activity” value (42° C. for 3 hours, control without polyol = 100%, listed as 20% Maltitol)?
**A.** 116* %

**Q.** And the “% enzymatic activity” value (42° C. for 3 hours, control without polyol = 100%, listed as 25% Maltitol)?
**A.** 129* %

**Q.** What about the “% enzymatic activity” value (52° C. for 3 hours, control without polyol = 100%, listed as 1% Maltitol) of the same molecule?
**A.** 17* %

**Q.** And the “% enzymatic activity” value (52° C. for 3 hours, control without polyol = 100%, listed as 2.5% Maltitol)?
**A.** 24* %

**Q.** And the “% enzymatic activity” value (52° C. for 3 hours, control without polyol = 100%, listed as 5% Maltitol)?
**A.** 37* %

**Q.** What about the “% enzymatic activity” value (52° C. for 3 hours, control without polyol = 100%, listed as 10% Maltitol) of the same molecule?
**A.** 111* %

**Q.** And the “% enzymatic activity” value (52° C. for 3 hours, control without polyol = 100%, listed as 15% Maltitol)?
**A.** 102* %

**Q.** What about the “% enzymatic activity” value (52° C. for 3 hours, control without polyol = 100%, listed as 20% Maltitol) of the same molecule?
**A.** 113* %

**Q.** And the “% enzymatic activity” value (52° C. for 3 hours, control without polyol = 100%, listed as 25% Maltitol)?
**A.** 120* %

**Q.** What about the “% enzymatic activity” value (62° C. for 3 hours, control without polyol = 100%, listed as 1% Maltitol) of the same molecule?
**A.** 0%

**Q.** And the “% enzymatic activity” value (62° C. for 3 hours, control without polyol = 100%, listed as 2.5% Maltitol)?
**A.** 0%

**Q.** What about the “% enzymatic activity” value (62° C. for 3 hours, control without polyol = 100%, listed as 5% Maltitol) of the same molecule?
**A.** 0%

**Q.** What about the “% enzymatic activity” value (62° C. for 3 hours, control without polyol = 100%, listed as 10% Maltitol) of the same molecule?
**A.** 6* %

**Q.** What about the “% enzymatic activity” value (62° C. for 3 hours, control without polyol = 100%, listed as 15% Maltitol) of the same molecule?
**A.** 8* %

**Q.** What about the “% enzymatic activity” value (62° C. for 3 hours, control without polyol = 100%, listed as 20% Maltitol) of the same molecule?
**A.** 7* %

**Q.** And the “% enzymatic activity” value (62° C. for 3 hours, control without polyol = 100%, listed as 25% Maltitol)?
**A.** 5* %

**Q.** Which “% enzymatic activity” value (4° C., freshly made control without polyol = 100%, listed as 1% Mannitol) does the source give for `OC[C@@H](O)[C@@H](O)[C@H](O)[C@H](O)CO` [Mannitol] here?
**A.** 98%

**Q.** What about the “% enzymatic activity” value (4° C., freshly made control without polyol = 100%, listed as 2.5% Mannitol) of the same molecule?
**A.** 100%

**Q.** What about the “% enzymatic activity” value (4° C., freshly made control without polyol = 100%, listed as 5% Mannitol) of the same molecule?
**A.** 98%

**Q.** And the “% enzymatic activity” value (4° C., freshly made control without polyol = 100%, listed as 10% Mannitol)?
**A.** 102%

**Q.** What about the “% enzymatic activity” value (4° C., freshly made control without polyol = 100%, listed as 12% Mannitol) of the same molecule?
**A.** 97%

**Q.** What about the “% enzymatic activity” value (42° C. for 3 hours, control without polyol = 100%, listed as 1% Mannitol) of the same molecule?
**A.** 77%

**Q.** What about the “% enzymatic activity” value (42° C. for 3 hours, control without polyol = 100%, listed as 2.5% Mannitol) of the same molecule?
**A.** 87* %

**Q.** What about the “% enzymatic activity” value (42° C. for 3 hours, control without polyol = 100%, listed as 5% Mannitol) of the same molecule?
**A.** 88* %

**Q.** And the “% enzymatic activity” value (42° C. for 3 hours, control without polyol = 100%, listed as 10% Mannitol)?
**A.** 87* %

**Q.** And the “% enzymatic activity” value (42° C. for 3 hours, control without polyol = 100%, listed as 12% Mannitol)?
**A.** 86* %

**Q.** What about the “temperature stabilizing effect on DispersinB at elevated temperatures” value of the same molecule?
**A.** did not exhibit temperature stabilizing effects

**Q.** What about the “% enzymatic activity” value (52° C. for 3 hours, control without polyol = 100%, listed as 5% Mannitol) of the same molecule?
**A.** 1* %

**Q.** What about the “% enzymatic activity” value (52° C. for 3 hours, control without polyol = 100%, listed as 10% Mannitol) of the same molecule?
**A.** 14* %

**Q.** What about the “% enzymatic activity” value (52° C. for 3 hours, control without polyol = 100%, listed as 12% Mannitol) of the same molecule?
**A.** 53* %

**Q.** With `OCC(O)CO` [glycerol, Propane-1,2,3-triol] as the molecule, how does the “% enzymatic activity” value (4° C., freshly made control without polyol = 100%, listed as Glycerol 1%) read?
**A.** 117* %

**Q.** And the “% enzymatic activity” value (4° C., freshly made control without polyol = 100%, listed as Glycerol 2.5%)?
**A.** 114* %

**Q.** And the “% enzymatic activity” value (4° C., freshly made control without polyol = 100%, listed as Glycerol 5%)?
**A.** 116* %

**Q.** What about the “% enzymatic activity” value (4° C., freshly made control without polyol = 100%, listed as Glycerol 10%) of the same molecule?
**A.** 124* %

**Q.** And the “% enzymatic activity” value (4° C., freshly made control without polyol = 100%, listed as Glycerol 20%)?
**A.** 128* %

**Q.** And the “% enzymatic activity” value (4° C., freshly made control without polyol = 100%, listed as Glycerol 30%)?
**A.** 131* %

**Q.** What about the “% enzymatic activity” value (42° C. for 3 hours, control without polyol = 100%, listed as Glycerol 1%) of the same molecule?
**A.** 94* %

**Q.** What about the “% enzymatic activity” value (42° C. for 3 hours, control without polyol = 100%, listed as Glycerol 2.5%) of the same molecule?
**A.** 98* %

**Q.** And the “% enzymatic activity” value (42° C. for 3 hours, control without polyol = 100%, listed as Glycerol 5%)?
**A.** 90* %

**Q.** And the “% enzymatic activity” value (42° C. for 3 hours, control without polyol = 100%, listed as Glycerol 10%)?
**A.** 115* %

**Q.** And the “% enzymatic activity” value (42° C. for 3 hours, control without polyol = 100%, listed as Glycerol 20%)?
**A.** 112* %

**Q.** What about the “% enzymatic activity” value (42° C. for 3 hours, control without polyol = 100%, listed as Glycerol 30%) of the same molecule?
**A.** 116* %

**Q.** And the “temperature stabilizing effect on DispersinB at elevated temperatures” value?
**A.** exhibited temperature stabilizing effect

**Q.** And the “% enzymatic activity” value (52° C. for 3 hours, control without polyol = 100%, listed as Glycerol 5%)?
**A.** 16* %

**Q.** What about the “% enzymatic activity” value (52° C. for 3 hours, control without polyol = 100%, listed as Glycerol 10%) of the same molecule?
**A.** 31* %

**Q.** And the “% enzymatic activity” value (52° C. for 3 hours, control without polyol = 100%, listed as Glycerol 20%)?
**A.** 92* %

**Q.** And the “% enzymatic activity” value (52° C. for 3 hours, control without polyol = 100%, listed as Glycerol 30%)?
**A.** 93* %
